Patent US20060099267A1, “High-dosage extended-release formulation of gepirone” (Fabre-Kramer Pharmaceuticals, Inc., priority 2004, published 2006)
Where a name gives a salt, the structure may show the parent alone.

Columns and labels:
5-HT1A receptors = biological target: T1, 5-HT1A receptors (Homo sapiens, UniProt P08908); details: cited from earlier work
T1 sequence (P08908 1-422): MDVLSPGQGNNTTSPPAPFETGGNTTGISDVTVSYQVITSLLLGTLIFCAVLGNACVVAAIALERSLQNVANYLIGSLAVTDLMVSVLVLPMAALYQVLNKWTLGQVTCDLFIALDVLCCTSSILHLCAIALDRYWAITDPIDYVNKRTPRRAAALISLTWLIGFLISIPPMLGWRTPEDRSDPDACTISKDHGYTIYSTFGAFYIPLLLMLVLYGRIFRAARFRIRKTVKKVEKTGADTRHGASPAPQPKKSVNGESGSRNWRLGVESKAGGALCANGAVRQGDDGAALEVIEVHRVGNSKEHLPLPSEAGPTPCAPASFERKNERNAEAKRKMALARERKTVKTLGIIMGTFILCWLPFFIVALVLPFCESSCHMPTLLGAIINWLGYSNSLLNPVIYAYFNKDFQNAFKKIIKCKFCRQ

[1] = test system: post-synaptic receptors in the hippocampus; details: cited from earlier work
[2] = in vivo; cited from earlier work
[3] = test system: presynaptic α-2-adrenoceptor; details: cited from earlier work
[4] = Open label, randomized, four-way crossover, single dose bioequivalence and pharmacokinetic study of extended-release gepirone tablets; assay type: in vivo, human; details: 40-80 mg dose range
Excerpt: Heretofore, efficacy and pharmacokinetic data for extended release gepirone tablets have been primarily obtained by administering one or multiple 20-mg extended-release gepirone tablets (similar to that described in the Preparation Example above).
To this end, an open label, randomized, four-way crossover, single dose study design was used with a washout phase of one week between different treatments. During each study period, the subjects were hospitalized from the afternoon before until 36 hours after gepirone administration. Following discharge, blood sample collections were taken at 48, 60, and 72 hours post-administration. […]
To determine the bioequivalence of one 80-mg extended-release gepirone tablet versus four 20-mg extended-release gepirone tablets the following pharmacokinetic parameter were calculated for each subject and treatment: • tmax (TMAX) • The actual time of occurrence of Cmax. • Cmax (CMAX) • The measured maximum concentration in plasma after single dosing. • dn-Cmax (DCMAX) • The dose-normalized Cmax was calculated as Cmax/Dose. • λZ (LZ) and t1/2 (THALF) • The slope (β) of the terminal log-linear phase of the concentration-versus-time curve was determined by linear regression. […] The terminal elimination rate constant (λZ) was defined as −β from which the elimination half-life (t1/2) was calculated as […]. […]

[5] = immediate-release formulations; cited from earlier work
[6] = immediate-release formulations; cited from earlier work; remark: listed apart in the source

| Compound | affinity for 5-HT1A receptors (5-HT1A receptors) | agonism at post-synaptic receptors in the hippocampus [1] | antidepressant-like characteristics in pre-clinical tests [2] | activity at presynaptic α-2-adrenoceptor [3] | dose proportionality [4] | time to maximum drug concentration of gepirone in the bloodstream (Tmax) [5] | T50 (time until 50% of the drug has been released under controlled in vitro conditions) [6] [h] |
| --- | --- | --- | --- | --- | --- | --- | --- |
| CC1(C)CC(=O)N(CCCCN2CCN(c3ncccn3)CC2)C(=O)C1O (centres unmarked) [3′-OH gepirone] | significant affinity | full agonism |  |  |  |  |  |
| c1cnc(N2CCNCC2)nc1 [1-PP, 1-(2-pyrimidinyl)piperazine] |  |  | did not exhibit antidepressant-like characteristics | antagonist |  |  |  |
| CC1(C)CC(=O)N(CCCCN2CCN(c3ncccn3)CC2)C(=O)C1 [gepirone, 4,4-dimethyl-1-[4-[4-(2-pyrimidinyl)-1-piperazinyl]-butyl]-2,6-piperidinedione hydrochloride] |  | partial agonist |  |  | dose proportionality | about 1 hour | 2.5 to 3 |
